From US20220125913A1, “[…] PEPTIDES, AMINO-ACID SEQUENCES, AND COMPOSITIONS USEFUL FOR SARS-CoV-2 DETECTION AND COVID-19 PREVENTION” (priority 2020, published 2022) come the findings set out here.

The test system of the assay is SARS-CoV-2 circulation lineages in Colombia (B.1, B.1.111, B.1.111+E48K). The following applies: in vivo, sc.
As to CGVLSFELLHAPATVSGPKKSTNGC [PHE-14], the sera neutralizing antibodies entry is recorded as “detected”.
As for CGVTLAILTALRLSAYSSNIVGC [PHE-20], the entry is “detected”; as for CGKDQVILLNKHIDAYKTFPPTGC [PHE-30], “detected”.
